# In patent US20260248820A1, “USES OF HYDROGENATED CANNABIDIOL (H4CBD) AND ADVANCED METABOLIC SYNDROME” (The Regents of the University of California, priority 2022, published 2026):
# Entries after “also recorded” stand apart in the source; their conditions may differ.
# Legend:
# [1] = Drug bioavailability detection in heparinized plasma (HPLC, MS/MS); type: in vivo, rat; conditions: peak area count <1500 considered negative, 200 mg/kg oral gavage
# Method: Drug Bioavailability Detection—H4CBD bioavailability in heparinized plasma was determined via HPLC and MS/MS. In brief, 100 μL heparinized rat plasma was diluted with 100 μL Mass Spec Gold human serum (Golden West Diagnostics, MSG3200). The samples were analyzed using a WATERS TQS-Micro. The first quadrupole was set to 319.16 m/z and the third quadrupole isolated fragments of 181.02 m/z.
# Drug Bioavailability Detection—H4CBD bioavailability in heparinized plasma was determined via HPLC and MS chromatography.
# Collagen Type IV = assay: Liver Type IV collagen deposition (liver damage); type: in vivo, rat; conditions: collagen 71% higher in OLETF than LETO
# Text: Type IV collagen deposition is an indicator of liver fibrosis, which is useful in the diagnosis of NAFLD in elderly individuals and models of NAFLD like OLETF.
# [2] = system: proteins involved in fatty acid uptake, metabolism and storage (liver); assay: Western blot of liver proteins involved in fatty acid uptake, metabolism and storage; type: in vivo, rat
# Text: Western Blot—Liver was used to measure proteins involved in fatty acid uptake, metabolism and storage. Densitometry values were quantified using ImageJ software (NIH) and normalized by correcting for densitometry values of representative protein bands below 37 kDa stained with Ponceau S. Results are reported as expression (%) compared to LETO.
# [3] = system: Otsuka Long-Evans Tokushima Fatty (OLETF) rat; assay: Observation of treated animals during dosing window; type: in vivo; conditions: all treated animals, regardless of dose frequency relaxation
# [4] = system: Otsuka Long-Evans Tokushima Fatty (OLETF) rat; assay: Oral Glucose Tolerance Test (OGTT); type: in vivo
# Method: Male lean Long Evan's Tokushima Otsuka (LETO) rats and obese Otsuka Long Evans Tokushima Fatty (OLETF) rats (Japan SLC Inc., Hamamatsu, Japan), both 14 weeks of age were assigned to the following groups (n=8/group): (1) vehicle-dosed LETO (LETO), (2) vehicle-dosed OLETF (OLETF), and (3) H4CBD-treated (200 mg/kg/day×4 weeks) OLETF (H4CBD). Rats were maintained in a specific pathogen-free, climate-controlled facility on a 12-hour light: dark cycle (07:00-19:00 and 19:00-07:00, respectively). All animals had free access to water and were fed rat chow (Teklad Global; fat 9.0%; carbohydrate 44.9%; protein 19.0%) ad libitum. Treatment intervention was initiated at 41 weeks of age. Phenotypic data (i.e. body mass, food intake) was collected daily for all animals.
# Purified H4CBD (>99%) was suspended in food grade sesame oil and administered by oral gavage at a dose of 200 mg/kg.
# Oral Glucose Tolerance Test (OGTT)—At approximately 45 weeks of age and following an overnight fast, oGTTs were performed as previously described. The positive incremental areas under the curve for glucose (AUCglucose) and insulin (AUCinsulin) were calculated by the trapezoidal method. Insulin resistance index (IRI) was calculated by AUCglucosex AUCinsulin/100, as previously described.
# [5] = system: Otsuka Long-Evans Tokushima Fatty (OLETF) rat; assay: Urinalysis (urine volume, total protein, creatinine, 3-methylhistidine); type: in vivo
# Method: Body Mass (BM), Water, and Food Intake—BM was measured daily to calculate the appropriate drug and vehicle dose. Water, urine and food were measured once every 24 hours throughout the study.
# Urinalysis—Urine was collected and thawed on ice to measure 3-methylhistidine (3MH; Abbexa; 257295) and creatinine (Invitrogen; EIACUN). Excretion was calculated for both by multiplying the 24-hr urine volume by the measured concentration (U×V=V*[x]), where x=creatinine or 3MH.
# [6] = system: endocannabinoid receptors; conditions: cited from earlier work
# lipase activity = assay: Lipase activity assay (adipose, liver, plasma); type: in vivo, rat
# Method: Lipase Activity Assay—White adipose tissue (WAT) and liver was assayed for lipase activity.
# [7] = system: proteins involved in insulin signaling (soleus); assay: Western blot of soleus insulin signaling proteins; type: in vivo, rat
# Text: Western Blot—Soleus was used to measure proteins involved in insulin signaling. Densitometry values were quantified using ImageJ software (NIH) and normalized by correcting for densitometry values of representative protein bands below 37 kDa stained with Ponceau S. Results are reported as expression (%) compared to LETO.
# Mas1 mRNA = assay: Real-time qPCR on cardiac tissue, Mas1; type: in vivo, rat; conditions: 74% lower in OLETF control than LETO
# Text: (§1) Real-Time qPCR—Gene expression was quantified by qPCR on cardiac tissue. Primers used were acquired from Integrated DNA Technologies and listed here 5′-3′: angiotensin MAS1 receptor (Mas1) Fw: […] (SEQ ID NO:1), Rv: […] (SEQ ID NO:2).
# AT1 mRNA = assay: Real-time qPCR on cardiac tissue, AT1; type: in vivo, rat
# Text: as §1
smiles,measurement,setting,value
"CCCCCc1cc(O)c(C2CC(C)CCC2C(C)C)c(O)c1 (stereo not shown) [H4CBD, 2-(2-isopropyl-5-methylcyclohexyl)-5-pentylbenzene-1,3-diol]",H4CBD in end of study plasma,[1],only treated animals received drug; also recorded: only detected in plasma from treated rats
same,Liver collagen (Type IV) deposition,Collagen Type IV,no effect on collagen levels
same,"Downstream signaling proteins GPAM, DGAT1, CPTIA, ACOX1, ApoB and PRDX6",[2]; data not shown,comparable between groups
same,FATP5 expression,[2]; increased 109% in OLETF vs LETO,not effected
same,Increase of FATP2 expression,[2]; p<0.05,60%
same,Rescue (increase) of CD36 expression,[2]; p<0.05,48%
same,Stool observation,[3],soft stool at multiple points of the dosing window
same,Glucose response curve to OGTT,"[4]; % baseline, p<0.01 OLETF vs. H4CBD",lowest
same,Reduction of insulin resistance index (IRI),"[4]; IRI = AUCglucose x AUCinsulin/100, p<0.05 OLETF vs. H4CBD",23%
same,Time of blood glucose peak after glucose bolus,"[4]; OGTT at about 45 weeks, overnight fast, treated and non-treated OLETF",60 min
same,Reduction of overall AUCglucose from OLETF,"[4]; OGTT, p<0.001",29%
same,Plasma insulin response to OGTT,[4]; response abolished in OLETF,not rescued
same,"Urine excretion compared to vehicle control, first week",[5]; 24-hour urine,reduced
same,"Urine excretion volume compared to OLETF control, remainder of study","[5]; 24-hour urine, persisted through the remainder of the study",increased above OLETF control by Day 11
same,Increase of 3MH excretion pre- vs. post-treatment,[5]; Day 0 vs Day 28,9%
same,3MH excretion less than OLETF control,[5]; after 4 weeks,17%
same,Reduction of creatinine excretion compared to OLETF control,[5]; after 4 weeks,42%
same,Increase of creatinine excretion within H4CBD-treated group,"[5]; after 4 weeks of treatment vs Day 0, non-significant",10%
same,3MH/Cr higher than OLETF control,"[5]; post-treatment (Day 28), p=0.07",77%
same,Reduction of proteinuria compared to OLETF control,[5]; total urinary protein excretion after 4 weeks,25%
same,Increase of 3MH/Cr after 4 weeks,"[5]; within H4CBD treated OLETF, muscle wasting index",4%
same,Affinity for the endocannabinoid receptors responsible for cannabis intoxication,[6],little affinity
same,"Liver lipase activity (cytosolic, membrane)","lipase activity; LETO, OLETF, H4CBD",not different among groups
same,Fasted plasma lipase activity,lipase activity; data not shown,not significantly different among groups
same,Increase of adipose lipase activity compared to OLETF control,"lipase activity; white adipose tissue, tended, p=0.094",22%
same,Translocated (membrane) GLUT4,[7]; membrane fraction of skeletal muscle,no changes
same,AMPK expression,[7]; soleus,No changes were detected
same,Ratio of membrane to cytosolic GLUT4,[7]; soleus,unchanged among the groups
same,Reduction of PI3K expression compared to OLETF,[7]; soleus,47%
same,pAMPK expression,[7]; soleus,No changes were detected
same,pAMPK/AMPK expression,[7]; soleus,No changes were detected
same,pIR/IR,[7]; soleus,not changed
same,Phosphorylation of the insulin receptor (pIR),[7]; soleus protein expression,No changes were detected
same,Reduction of Akt expression compared to OLETF,"[7]; soleus, cytosolic, p<0.05",32%
same,Reduction of pAkt expression compared to OLETF,"[7]; soleus, cytosolic, p<0.05",58%
same,Reduction of pAkt:Akt ratio compared to OLETF,"[7]; soleus, p<0.01",35%
same,Increase of native insulin receptor (IR) expression over OLETF,"[7]; soleus, p<0.05",54%
same,Cytosolic GLUT4 higher than OLETF,"[7]; soleus, tended, p=0.06",58%
same,Mas1 mRNA expression,Mas1 mRNA,not rescued
same,AT1 mRNA expression higher than control OLETF,AT1 mRNA,49%
